According to ChEMBL document CHEMBL5329194, “Design, Synthesis, and Evaluation of 18F-Labeling CYP1B1 PET Tracer Based on 2-Phenylquinazolin” (Bioorg Med Chem Lett, 2023):

Experiments:
[1] = Drug distribution in KM mouse liver xenografted with human HCT-116 cells measured after 1 hr block group; assay type: ADME, tissue-based; conditions: read-out: Drug uptake
[2] = Drug distribution in KM mouse bone xenografted with human HCT-116 cells measured after 1 hr; assay type: ADME, tissue-based, Bone element; conditions: read-out: Drug uptake
[3] = Drug distribution in KM mouse tumor xenografted with human HCT-116 cells measured after 1 hr block group; assay type: ADME, tissue-based, Neoplasm; conditions: read-out: Drug uptake
[4] = Drug uptake in human HCT-116 cells at 10 nM measured after 30 min; assay type: ADME, cell-based; conditions: hct-116, 0.5 h, 0.01 µM
[5] = Drug distribution in KM mouse lung xenografted with human HCT-116 cells measured after 1 hr block group; assay type: ADME, tissue-based; conditions: read-out: Drug uptake
[6] = Drug uptake in KM mouse gastrointestinal tract xenografted with human HCT-116 cells measured after 40 to 60 mins by PET imaging based analysis; assay type: ADME, tissue-based; conditions: time 40-60 min
[7] = Drug distribution in KM mouse stomach xenografted with human HCT-116 cells measured after 1 hr; assay type: ADME, tissue-based; conditions: read-out: Drug uptake
[8] = Drug accumulation in blood of KM mouse measured after 2 hrs; assay type: ADME, tissue-based; conditions: read-out: Drug uptake
[9] = Drug accumulation in liver of KM mouse measured after 10 mins; assay type: ADME, tissue-based; conditions: read-out: Drug uptake
[10] = Drug uptake in mouse liver measured after 60 min; assay type: ADME, tissue-based; conditions: in vivo, 1 h
[11] = Drug distribution in KM mouse intestine xenografted with human HCT-116 cells measured after 1 hrs block group; assay type: ADME, tissue-based; conditions: read-out: Drug uptake
[12] = Drug distribution in KM mouse spleen xenografted with human HCT-116 cells measured after 1 hr block group; assay type: ADME, tissue-based; conditions: read-out: Drug uptake
[13] = Drug distribution in KM mouse blood xenografted with human HCT-116 cells measured after 1 hr block group; assay type: ADME, tissue-based; conditions: read-out: Drug uptake
[14] = Drug distribution in KM mouse kidney xenografted with human HCT-116 cells measured after 1 hr; assay type: ADME, tissue-based; conditions: read-out: Drug uptake
[15] = Lipophilicity, logP of compound; assay type: physicochemical; conditions: octanol/water
[16] = Drug accumulation in small intestine of KM mouse measured after 2 hrs; assay type: ADME, tissue-based; conditions: read-out: Drug uptake
[17] = Drug uptake in human HCT-116 cells measured after 30 mins; assay type: ADME, cell-based; conditions: hct-116, 0.5 h
[18] = Drug distribution in KM mouse brain xenografted with human HCT-116 cells measured after 1 hr block group; assay type: ADME, tissue-based; conditions: read-out: Drug uptake
[19] = Drug accumulation in brain of KM mouse measured after 10 mins; assay type: ADME, tissue-based; conditions: read-out: Drug uptake
[20] = Ratio of drug level in tumor to muscle in KM mouse xenografted with human HCT-116 cells measured after 1 hr block group; assay type: ADME, tissue-based
[21] = Drug distribution in KM mouse heart xenografted with human HCT-116 cells measured after 1 hr block group; assay type: ADME, tissue-based; conditions: read-out: Drug uptake
[22] = Drug distribution in KM mouse pancreas xenografted with human HCT-116 cells measured after 1 hr block group; assay type: ADME, tissue-based; conditions: read-out: Drug uptake
[23] = Retention time of the compound; assay type: physicochemical
[24] = Ratio of drug level in tumor to muscle in KM mouse xenografted with human HCT-116 cells measured after 1 hr; assay type: ADME, tissue-based
[25] = Drug distribution in KM mouse tumor xenografted with HCT-116 cells measured after 1 hr; assay type: ADME, tissue-based, Neoplasm; conditions: read-out: Drug uptake
[26] = Drug uptake in mouse liver measured after 10 mins; assay type: ADME, tissue-based; conditions: in vivo
[27] = Drug uptake in human HCT-15 cells measured after 1 hr; assay type: ADME, cell-based; conditions: hct-15, 1 h
[28] = Drug accumulation in bone of KM mouse measured after 2 hrs; assay type: ADME, tissue-based, Bone element; conditions: read-out: Drug uptake
[29] = Ratio of drug level in tumor to blood in KM mouse xenografted with human HCT-116 cells measured after 1 hr; assay type: ADME, tissue-based
[30] = Stability of compound in PBS assessed as compound remaining measure after 1 to 2 hrs; assay type: physicochemical; conditions: buffer; time 1-2 hrs
[31] = Ratio of drug level in tumor to blood in KM mouse xenografted with human HCT-116 cells measured after 1 hr block group; assay type: ADME, tissue-based
[32] = Drug uptake in human MCF7 cells measured after 30 mins in presence of 2-(4-bromophenyl)-4-(2-(2-(2-fluoroethoxy)ethoxy)ethoxy)quinazoline; assay type: ADME, cell-based; conditions: mcf7, 0.5 h
[33] = Drug uptake in human MCF7 cells measured after 1 hr; assay type: ADME, cell-based; conditions: mcf7, 1 h
[34] = Drug distribution in KM mouse bone xenografted with human HCT-116 cells measured after 1 hr block group; assay type: ADME, tissue-based, Bone element; conditions: read-out: Drug uptake
[35] = Drug distribution in KM mouse kidney xenografted with human HCT-116 cells measured after 1 hr block group; assay type: ADME, tissue-based; conditions: read-out: Drug uptake
[36] = Drug distribution in KM mouse liver xenografted with human HCT-116 cells measured after 1 hr; assay type: ADME, tissue-based; conditions: read-out: Drug uptake
[37] = Drug distribution in KM mouse spleen xenografted with human HCT-116 cells measured after 1 hr; assay type: ADME, tissue-based; conditions: read-out: Drug uptake
[38] = Drug distribution in KM mouse blood xenografted with human HCT-116 cells measured after 1 hr; assay type: ADME, tissue-based; conditions: read-out: Drug uptake
[39] = Drug uptake in human HCT-15 cells measured after 30 mins in presence of 2-(4-bromophenyl)-4-(2-(2-(2-fluoroethoxy)ethoxy)ethoxy)quinazoline; assay type: ADME, cell-based; conditions: hct-15, 0.5 h
[40] = Drug distribution in KM mouse intestine xenografted with human HCT-116 cells measured after 1 hr; assay type: ADME, tissue-based; conditions: read-out: Drug uptake
[41] = Stability of compound in mouse plasma assessed as compound remaining measured after 1 to 2 hrs; assay type: ADME, cell-free; conditions: time 1-2 hrs
[42] = Drug distribution in KM mouse pancreas xenografted with human HCT-116 cells measured after 1 hr; assay type: ADME, tissue-based; conditions: read-out: Drug uptake
[43] = Drug uptake in KM mouse intestine xenografted with human HCT-116 cells measured after 80 mins by PET imaging based analysis; assay type: ADME, tissue-based; conditions: 1.333 h
[44] = Drug uptake in KM mouse liver xenografted with human HCT-116 cells measured after 40 to 60 mins by PET imaging based analysis; assay type: ADME, tissue-based; conditions: time 40-60 min
[45] = Drug accumulation in intestine of KM mouse measured after 30 mins; assay type: ADME, tissue-based; conditions: read-out: Drug uptake
[46] = Drug distribution in KM mouse muscle xenografted with human HCT-116 cells measured after 1 hr block group; assay type: ADME, tissue-based, Muscle tissue; conditions: read-out: Drug uptake
[47] = Drug distribution in KM mouse lung xenografted with human HCT-116 cells measured after 1 hr; assay type: ADME, tissue-based; conditions: read-out: Drug uptake
[48] = Drug distribution in KM mouse stomach xenografted with human HCT-116 cells measured after 1 hr block group; assay type: ADME, tissue-based; conditions: read-out: Drug uptake
[49] = Drug distribution in KM mouse brain xenografted with human HCT-116 cells measured after 1 hr; assay type: ADME, tissue-based; conditions: read-out: Drug uptake
[50] = Drug accumulation in heart of KM mouse measured after 10 mins; assay type: ADME, tissue-based; conditions: in vivo
[51] = Drug distribution in KM mouse muscle xenografted with human HCT-116 cells measured after 1 hr; assay type: ADME, tissue-based, Muscle tissue; conditions: read-out: Drug uptake
[52] = Drug distribution in KM mouse heart xenografted with human HCT-116 cells measured after 1 hr; assay type: ADME, tissue-based; conditions: read-out: Drug uptake

- tissue uptake at 1 h [1]: 9.5 %ID/g
- tissue uptake at 1 h [2]: 2.81 %ID/g
- tissue uptake at 1 h [3]: 3.31 %ID/g
- Drug uptake [4]: 23.64%
- tissue uptake at 1 h [5]: 5.42 %ID/g
- Drug uptake [6]: Active
- tissue uptake at 1 h [7]: 1.75 %ID/g
- tissue uptake at 2 h [8]: 3.97 %ID/g
- tissue uptake at 10 min [9]: 10.2 %ID/g
- Drug uptake [10]: 37.63%
- tissue uptake at 1 h [11]: 7.1 %ID/g
- tissue uptake at 1 h [12]: 5.62 %ID/g
- tissue uptake at 1 h [13]: 3.3 %ID/g
- tissue uptake at 1 h [14]: 8.49 %ID/g
- logP [15]: 3.88
- tissue uptake at 2 h [16]: 8.37 %ID/g
- Drug uptake [17]: 35.27%
- tissue uptake at 1 h [18]: 6.56 %ID/g
- tissue uptake at 10 min [19]: 7.94 %ID/g
- Ratio [20]: 0.79
- tissue uptake at 1 h [21]: 5.23 %ID/g
- tissue uptake at 1 h [22]: 7.53 %ID/g
- Retention_time [23]: 2.97 min
- Ratio [24]: 0.98
- tissue uptake at 1 h [25]: 4.76 %ID/g
- Drug uptake [26]: 83.7%
- Drug uptake [27]: 25.61%
- tissue uptake at 2 h [28]: 5.62 %ID/g
- Kp at 1 h [29]: 1.16
- Stability [30]: > 90%
- Kp at 1 h [31]: 1.01
- Drug uptake [32]: 13.62%
- Drug uptake [33]: 25.26%
- tissue uptake at 1 h [34]: 2.44 %ID/g
- tissue uptake at 1 h [35]: 7.65 %ID/g
- tissue uptake at 1 h [36]: 9.99 %ID/g
- tissue uptake at 1 h [37]: 6.45 %ID/g
- tissue uptake at 1 h [38]: 4.15 %ID/g
- Drug uptake [39]: 18.35%
- tissue uptake at 1 h [40]: 8.84 %ID/g
- Stability [41]: > 90%
- tissue uptake at 1 h [42]: 8.21 %ID/g
- Drug uptake [43]: Active
- Drug uptake [44]: Active
- tissue uptake at 0.5 h [45]: 10.8 %ID/g
- tissue uptake at 1 h [46]: 4.2 %ID/g
- tissue uptake at 1 h [47]: 5.66 %ID/g
- tissue uptake at 1 h [48]: 1.6 %ID/g
- tissue uptake at 1 h [49]: 7.34 %ID/g
- Drug uptake [50]: Active
- tissue uptake at 1 h [51]: 4.92 %ID/g
- tissue uptake at 1 h [52]: 6.4 %ID/g
Structure (SMILES): [18F]CCOCCOCCOc1nc(-c2ccc(Br)cc2)nc2ccccc12
